How the values were obtained:
Assay in all cases: MIC, in vitro antibacterial activity (standard strains)
P. maltophilia GIFU 2491 = assay type: cell-based; conditions: Stenotrophomonas maltophilia, GIFU2491; 10^6 cells/ml; Gram -; read-out: MIC
E. coli ATCC 10536 = assay type: cell-based, Escherichia coli; conditions: Escherichia coli, ATCC10536; 10^6 cells/ml; Gram -; read-out: MIC
P. aeruginosa IFO 12689 = assay type: cell-based, Pseudomonas aeruginosa; conditions: Pseudomonas aeruginosa, IFO12689; 10^6 cells/ml; Gram -; read-out: MIC
[1] = tested on: Clostridium difficile I-E; assay type: cell-based; conditions: Clostridioides difficile; 10^6 cells/ml; Gram +
[2] = tested on: Bacillus subtilis PCI 219; assay type: cell-based; conditions: Bacillus subtilis, PCI219; 10^6 cells/ml; Gram +; read-out: MIC
[3] = tested on: Yersinia enterocolitica IID 981; assay type: cell-based; conditions: Yersinia enterocolitica, IID981; 10^6 cells/ml; Gram -; read-out: MIC
[4] = tested on: Klebsiella pneumoniae KY(GN)6445; assay type: cell-based; conditions: Klebsiella pneumoniae; 10^6 cells/ml; Gram -; read-out: MIC
[5] = tested on: S. aureus IID 670 (Terajima); assay type: cell-based, Staphylococcus aureus; conditions: Staphylococcus aureus, IID670
[6] = tested on: Salmonella enteritidis IID 604; assay type: cell-based; conditions: Salmonella enterica; 10^6 cells/ml; Gram -; read-out: MIC
[7] = tested on: Morganella morganii IID 602; assay type: cell-based; conditions: Morganella morganii, IID602; 10^6 cells/ml; Gram -; read-out: MIC
K. pneumoniae 1-220S = assay type: cell-based, Klebsiella pneumoniae; conditions: Klebsiella pneumoniae, 1220S; 10^6 cells/ml; Gram -; read-out: MIC
[8] = tested on: Enterobacter cloacae IID 977; assay type: cell-based; conditions: Enterobacter cloacae, IID977; 10^6 cells/ml; Gram -; read-out: MIC
F. varium KYA 8501 = assay type: cell-based; conditions: Fusobacterium varium, KYA8501; 10^6 cells/ml; Gram -; read-out: MIC
S. pyogenes IID 692 = assay type: cell-based, Streptococcus pyogenes; conditions: Streptococcus pyogenes, IID692; 10^6 cells/ml; Gram +; read-out: MIC
C. ramosum = assay type: cell-based; conditions: Thomasclavelia ramosa; 10^6 cells/ml; Gram +; read-out: MIC
Shigella sonnei IID 969 = assay type: cell-based; conditions: Shigella sonnei, IID969; 10^6 cells/ml; Gram -; read-out: MIC
Method: Minimal inhibitory concentrations (MICs) were determined in accordance with the method recommended by Japan Society of Chemotherapy.

E. coli ML 4707 = assay type: cell-based, Escherichia coli; conditions: Escherichia coli, ML4707, 10^6 cells/ml; Gram -; Table 1; read-out: MIC
S. aureus Smith = assay type: cell-based, Staphylococcus aureus; conditions: Staphylococcus aureus; 10^6 cells/ml; Gram +; read-out: MIC
E. faecalis IID 682 = assay type: cell-based; conditions: Enterococcus faecalis, IID682
P. mirabilis IID 994 = assay type: cell-based; conditions: Proteus mirabilis, IID994; 10^6 cells/ml; Gram -; read-out: MIC
[9] = tested on: Bacteroides fragilis GM 7000; assay type: cell-based; conditions: Bacteroides fragilis, GM7000; 10^6 cells/ml; Gram -; read-out: MIC
[10] = tested on: Streptococcus pyogenes (S-8); assay type: cell-based; conditions: Streptococcus pyogenes
[11] = tested on: Proteus vulgaris IFO 3167; assay type: cell-based; conditions: Proteus vulgaris, IFO3167; 10^6 cells/ml; Gram -; read-out: MIC
[12] = tested on: Alcaligenes faecalis 0114002; assay type: cell-based; conditions: Alcaligenes faecalis, 0114002
[13] = tested on: Escherichia coli NIHJ JC-2; assay type: cell-based; conditions: Escherichia coli, NIHJJC2; 10^6 cells/ml; Gram -; read-out: MIC
[14] = tested on: Acinetobacter anitratus IID 876; assay type: cell-based; conditions: Acinetobacter calcoaceticus, IID876
[15] = tested on: Serratia marcescens IID 618; assay type: cell-based; conditions: Serratia marcescens, IID618; 10^6 cells/ml; Gram -; read-out: MIC
B. fragilis 25285 = assay type: cell-based, Bacteroides fragilis; conditions: Bacteroides fragilis, 25285; 10^6 cells/ml; Gram -; read-out: MIC
S. epidermidis IID 866 = assay type: cell-based; conditions: Staphylococcus epidermidis, IID866; 10^6 cells/ml; Gram +; read-out: MIC
[16] = tested on: Pseudomonas aeruginosa V-1; assay type: cell-based; conditions: Pseudomonas aeruginosa, V1; 10^6 cells/ml; Gram -; read-out: MIC
B. fragilis 0558 = assay type: cell-based, Bacteroides fragilis; conditions: Bacteroides fragilis, 0558; 10^6 cells/ml; Gram -; read-out: MIC
[17] = tested on: Citrobacter freundii IID 976; assay type: cell-based; conditions: Citrobacter freundii, IID976; 10^6 cells/ml; Gram -; read-out: MIC
P. aeruginosa IID 1210 = assay type: cell-based, Pseudomonas aeruginosa; conditions: Pseudomonas aeruginosa, IID1210; 10^6 cells/ml; Gram -; read-out: MIC
[18] = tested on: Staphylococcus aureus 209 P; assay type: cell-based; conditions: Staphylococcus aureus, 209P; 10^6 cells/ml; Gram +; read-out: MIC
S. pneumoniae IID 552 = assay type: cell-based; conditions: Streptococcus pneumoniae, IID552; 10^6 cells/ml; Gram +; read-out: MIC

Measured: MIC

CCn1cc(C(=O)O)c(=O)c2cc(F)c(N3CCNCC3)cc21 [NFLX, norfloxacin, reference compound]
6.25 µg/mL: P. maltophilia GIFU 2491
3.13 µg/mL: S. pyogenes IID 692 | P. aeruginosa IID 1210 | S. pneumoniae IID 552
0.0563 µg/mL: [13]
50 µg/mL: [1] | C. ramosum
25 µg/mL: [9] | B. fragilis 25285 | B. fragilis 0558
1.56 µg/mL: [5] | E. faecalis IID 682 | [10] | [12] | [14]
0.78 µg/mL: P. aeruginosa IFO 12689 | S. aureus Smith | S. epidermidis IID 866 | [18]
0.39 µg/mL: [16]
0.1 µg/mL: [2] | [3] | K. pneumoniae 1-220S | [8]
100 µg/mL: F. varium KYA 8501
0.05 µg/mL: all other assays above
